This is an account of results in patent US20260327264A1, “PEPTIDE INHIBITORS OF INTERLEUKIN-23 RECEPTOR” (Zealand Pharma A/S, priority 2023, published 2026).

*1 amine or outer side, *2 acyl side, *3 side chain or, on linkers, in order; H or OH if unused. Where a SMILES comes first, the peptide text is derived from it. Bridges are numbered along the chain shown (N, C = ends). [ ]: non-standard residue; d: D form. 2Nal = N[C@@H](Cc1ccc2ccccc2c1)C(=O)O; AEF = NCCOc1ccc(C[C@H](N)C(=O)O)cc1; X1 = O=C(Cc1ccc(CN[*:1])cc1)[*:2]; 3Pal = N[C@@H](Cc1cccnc1)C(=O)O; αMeL = CC(C)C[C@](C)(N)C(=O)O; CH2COCH2 = O=C(C[*:1])C[*:2]; 3Amb = NCc1cccc(C(=O)O)c1; NMeA = CN[C@@H](C)C(=O)O; Dab = NCC[C@H](N)C(=O)O; Aib = CC(C)(N)C(=O)O; βAla = NCCC(=O)O

Experiment [1] concerns the target T1, human IL-23R (Homo sapiens, UniProt Q5VWK5).
T1 construct: Nanoluc luciferase (Nluc); secretion signal encoded by the plasmid (not specified); expressed in transfected cells; crude membranes used in the assay
T1 sequence (Q5VWK5 22-629): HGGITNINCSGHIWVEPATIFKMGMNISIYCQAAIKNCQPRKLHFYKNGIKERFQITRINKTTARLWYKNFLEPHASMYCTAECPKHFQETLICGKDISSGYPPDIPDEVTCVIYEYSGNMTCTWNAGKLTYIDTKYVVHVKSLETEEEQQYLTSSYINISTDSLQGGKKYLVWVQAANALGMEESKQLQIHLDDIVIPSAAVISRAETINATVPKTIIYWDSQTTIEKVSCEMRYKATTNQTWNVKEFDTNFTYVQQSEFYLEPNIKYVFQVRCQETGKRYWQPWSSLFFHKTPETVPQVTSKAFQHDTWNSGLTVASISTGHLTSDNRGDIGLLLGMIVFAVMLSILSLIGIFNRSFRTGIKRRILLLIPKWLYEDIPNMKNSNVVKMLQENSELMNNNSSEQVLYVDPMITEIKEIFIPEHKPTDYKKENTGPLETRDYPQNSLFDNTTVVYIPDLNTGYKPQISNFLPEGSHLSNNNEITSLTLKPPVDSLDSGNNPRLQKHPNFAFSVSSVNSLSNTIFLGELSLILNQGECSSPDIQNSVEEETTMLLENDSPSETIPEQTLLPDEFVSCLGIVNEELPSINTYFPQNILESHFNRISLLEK
Briefly: Binding assay: displacement of fluorophore (TAMRA)-labelled reference compound from human IL-23R (BRET, Nluc-IL23R fusion protein membranes). Conditions: for Emax: read-out: % displacement (hIL-23R binding). Background: In BRET a luciferase serves as donor, and the signal depends on an acceptor being close.

For experiment [2], the system named is IL-23 mediated STAT3 signalling (DB cells). As to the kind of experiment: Functional inhibition of IL-23 mediated STAT3 signalling (phospho-STAT3 Tyr705) in DB cells. Type of experiment: cell-based, human. Conditions: for IC50: Table 3-2, EC80 of hIL-23, read-out: hIL-23 (pSTAT3) antagonist IC50; for hIL-23 (pSTAT3) antagonist % inhibition: Table 3-2, maximal inhibitory response, EC80 of hIL-23. The source says:
Upon binding of IL-23, the IL-23R forms a heterodimer signalling complex together with IL-12R β1, which through the JAK2/STAT3 pathway promotes phosphorylation of STAT3 to form phospho-STAT3.
For compounds tested in this assay, the response was normalized relative to control values to calculate the IC50 and maximal inhibitory response from a concentration response curve of the compound in presence of a fixed concentration of human IL-23.
The assay procedure was as follows. […] Following preincubation of the DB cells with inhibitor for 15 min in a cell incubator (37° C., 5% CO2), 20 μL of the prepared 3× the EC80 of hIL-23 solution was added to each well and incubated for 90 min in a cell incubator (37° C., 5% CO2). For some wells buffer only or IL-23 only corresponding to the EC80 was added to obtain readouts needed for normalization. To terminate the assay, the plate was spun at 1000 G for 5 min to pellet cells, the supernatant removed using an 8-channel manual pipette, and then added 50 μL/well Complete Lysis Buffer from the MSD STAT3 kit (Cat #K150SVD, Mesoscale) to the cell pellet. To completely lyse cells to release phospho-STAT3 for detection, the plate was shaken for 10 min at room temperature (500 rpm) sealed with aluminium foil and placed at −80° C. for a minimum of 15 min. Detection of the phospho-STAT3 level in the cell lysate from the individual wells was determined using the MSD STAT3 kit (Cat #K150SVD, Mesoscale) and read on a Meso QuickPlex SQ 120 plate reader (Mesoscale).
For data analysis raw data counts from the Meso QuickPlex SQ 120 plate reader were normalized relative to the response by the EC80 of hIL-23 alone (no compound added) and the buffer level.

With `CC(C)C[C@]1(C)NC(=O)[C@H](Cc2ccc3ccccc3c2)NC(=O)[C@H](Cc2ccc(OCCN)cc2)NC(=O)[C@@H]2CSCC(=O)CSC[C@H](NC(=O)[C@H](CO)NC(=O)[C@H](Cc3cccnc3)NC(=O)CCNC(=O)CC[C@@H](C(=O)N[C@H](CCCNC(=N)N)C(N)=O)NC1=O)C(=O)N[C@@H](Cc1c[nH]c3ccccc13)C(=O)N[C@@H](CCC(N)=O)C(=O)N2` [Compound 1, [3-Aminopropanoyl](4c)*[3-(3-Pyridyl)-Ala]SC(2a)WQC(2a)[Y(2-aminoethoxy)][2-Nal][2-Me-Leu]E(4c)[{d}R]-[NH2]] ([βAla][3Pal]SCWQC[AEF][2Nal][αMeL]E[dR]-NH2; linker 4-7 via CH2COCH2; lactam N-11), the Emax in experiment [1] was 105%.

Turning to `CC(C)C[C@]1(C)NC(=O)[C@H](Cc2ccc3ccccc3c2)NC(=O)[C@H](Cc2ccc(OCCN)cc2)NC(=O)[C@@H]2CSCC(=O)CSC[C@H](NC(=O)[C@H](CO)NC(=O)CCNC(=O)[C@H](Cc3cccnc3)NC(=O)CC[C@@H](C(=O)N[C@H](CCCNC(=N)N)C(N)=O)NC1=O)C(=O)N[C@@H](Cc1c[nH]c3ccccc13)C(=O)N[C@@H](CCC(N)=O)C(=O)N2` [Compound 2, [3-(3-Pyridyl)-Ala](4c)*[3-Aminopropanoy]SC(2a)WQC(2a)[Y(2-aminoethoxy)][2-Nal][2-Me-Leu]E(4c)[{d}R]-[NH2]] ([3Pal][βAla]SCWQC[AEF][2Nal][αMeL]E[dR]-NH2; linker 4-7 via CH2COCH2; lactam N-11), in experiment [1], the Emax is 103%.

Usually IC50 stands for the concentration needed to halve the response being measured. With `CC(C)C[C@]1(C)NC(=O)[C@H](Cc2ccc3ccccc3c2)NC(=O)[C@H](Cc2ccc(OCCN)cc2)NC(=O)[C@@H]2CCNC(=O)CC[C@H](NC(=O)[C@H](CO)NC(=O)Cc3ccc(cc3)CNC(=O)CC[C@@H](C(=O)NC[C@@H](N[C@@H](Cc3cccnc3)C(N)=O)C(F)(F)F)NC1=O)C(=O)N[C@@H](Cc1c[nH]c3ccccc13)C(=O)N[C@@H](CCC(N)=O)C(=O)N2` [Compound 16, [4-Aminomethyl-phenylacetyl](1c)*SE(2c)WQ[Dab](2c)[Y(2-aminoethoxy)][2-Nal][2-Me-Leu]E(1c)[{d}Gly-CF3][3-(3-Pyridyl)-Ala]-[NH2]], in experiment [2], the concentration for half-maximal inhibition (IC50) stood at 1.4 nM and the “hIL-23 (pSTAT3) antagonist % inhibition” value was found to be 97%.

In the case of `CC(C)C[C@]1(C)NC(=O)[C@H](Cc2ccc3ccccc3c2)NC(=O)[C@H](Cc2ccc(OCCN)cc2)NC(=O)[C@@H]2CCNC(=O)CC[C@H](NC(=O)[C@H](CO)NC(=O)Cc3ccc(cc3)CNC(=O)CC[C@@H](C(=O)NC[C@H](N[C@@H](Cc3cccnc3)C(N)=O)C(F)(F)F)NC1=O)C(=O)N[C@@H](Cc1c[nH]c3ccccc13)C(=O)N[C@@H](CCC(N)=O)C(=O)N2` [Compound 17, [4-Aminomethyl-phenylacetyl](1c)*SE(2c)WQ[Dab](2c)[Y(2-aminoethoxy)][2-Nal][2-Me-Leu]E(1c)[Gly-CF3][3-(3-Pyridyl)-Ala]-[NH2]], in experiment [1], the IC50 turned out to be 1.2 nM and the Emax turned out to be 98%.

Regarding `CNC(=O)[C@H](Cc1cccnc1)NC(=O)[C@H](CCN)NC(=O)[C@@H]1CCC(=O)NCc2ccc(cc2)CC(=O)N[C@@H](C)C(=O)N[C@H]2CCC(=O)NCC[C@H](NC(=O)[C@H](CCC(N)=O)NC(=O)[C@H](Cc3c[nH]c4ccccc34)NC2=O)C(=O)N[C@@H](Cc2ccc(OCCN)cc2)C(=O)N[C@@H](CC2CC2)C(=O)NC(C)(C)C(=O)N1` [Compound 42, [4-Aminomethyl-phenylacetyl](1c)*AE(2c)WQ[Dab](2c)[Y(2-aminoethoxy)][Cyclopropyl-Ala][Aib]E(1c)[Dab][3-(3-Pyridyl)-Ala]-[NHMe]], in experiment [1], the IC50 was 12 nM and the Emax turned out to be 100%.

`CNC(=O)[C@H](Cc1cccnc1)NC(=O)[C@H](CCN)NC(=O)[C@@H]1CCC(=O)NCc2ccc(cc2)CC(=O)N[C@@H](C)C(=O)N[C@H]2CCC(=O)NCC[C@H](NC(=O)[C@H](CCC(N)=O)NC(=O)[C@H](Cc3c[nH]c4ccccc34)NC2=O)C(=O)N[C@@H](Cc2c[nH]c3ccccc23)CC(=O)N[C@@H](Cc2ccc3ccccc3c2)C(=O)NC(C)(C)C(=O)N1` [Compound 45, [4-Aminomethyl-phenylacetyl](1c)*AE(2c)WQ[Dab](2c)[beta-hTrp][2-Nal][Aib]E(1c)[Dab][3-(3-Pyridyl)-Ala]-[NHMe]]: the Emax in experiment [1] was determined as 104%.

Turning to `CNC(=O)[C@H](Cc1cccnc1)NC(=O)[C@H](CCN)NC(=O)[C@@H]1CCC(=O)NCc2ccc(cc2)CC(=O)N(C)[C@@H](C)C(=O)N[C@H]2CCC(=O)NCC[C@H](NC(=O)[C@H](CCC(N)=O)NC(=O)[C@H](Cc3c[nH]c4ccccc34)NC2=O)C(=O)N[C@@H](Cc2ccc(OCCN)cc2)C(=O)N[C@@H](Cc2ccc3ccccc3c2)C(=O)NC(C)(C)C(=O)N1` [Compound 48, [4-aminomethyl-phenylacetyl(1c)*][N—Me-Ala]E(2c)WQ[Dab](2c)[Y(2-aminoethoxy)][2Nal][Aib]E(1c)[Dab][3-(3-Pyridyl)-alanyl]-[NHMe]] ([X1][NMeA]EWQ[Dab][AEF][2Nal][Aib]E[Dab][3Pal]-NHMe; lactam 3-6, N-10), in experiment [1], the IC50 came to 0.01 nM and the Emax is 96%.

Take `CNC(=O)[C@H](Cc1cccnc1)NC(=O)[C@H](COC)NC(=O)[C@@H]1CCC(=O)NCc2ccc(cc2)CC(=O)N[C@@H](C)C(=O)N[C@H]2CCC(=O)NCC[C@H](NC(=O)[C@H](CCC(N)=O)NC(=O)[C@H](Cc3c[nH]c4ccccc34)NC2=O)C(=O)N[C@@H](Cc2ccc(N3CCOCC3)cc2)C(=O)N[C@@H](Cc2ccc3ccccc3c2)C(=O)NC(C)(C)C(=O)N1` [Compound 53, [4-aminomethyl-phenylacetyl](1c)*AE(2c)WQ[Dab](2c)[F(4-morpholine)][2Nal][Aib]E(1c)[Ser(OCH3)][3-(3-Pyridyl)-alanyl]-[NHMe]]: in experiment [1], the IC50 was found to be 0.23 nM and the Emax came out at 102%.

As to `CC(=O)N[C@@H](CC(=O)O)C(=O)N[C@H]1CCC(=O)NCCCC[C@@H](C(=O)N[C@@H](CCCNC(=N)N)C(N)=O)NC(=O)[C@H](CC(C)C)NC(=O)[C@H](Cc2ccc3ccccc3c2)NC(=O)[C@H](Cc2c[nH]c3ccccc23)NC(=O)[C@@H]2CSCC(=O)CSC[C@H](NC(=O)[C@H](CO)NC1=O)C(=O)N[C@@H](Cc1c[nH]c3ccccc13)C(=O)N[C@@H](CCC(N)=O)C(=O)N2` [Ref 17, [Ac]-DE(1c)SC(2a)WQC(2a)W[2-Nal]LK(1c)R-[NH2], reference compound], the IC50 in experiment [2] amounted to 370 nM.

Take `CC(C)C[C@]1(C)NC(=O)[C@H](Cc2ccc3ccccc3c2)NC(=O)[C@H](Cc2ccc(OCCN)cc2)NC(=O)[C@@H]2CSCC(=O)CSC[C@H](NC(=O)[C@H](CO)NC(=O)c3cccc(c3)CNC(=O)CC[C@@H](C(=O)N[C@@H](CCCNC(=N)N)C(=O)N[C@@H](Cc3cccnc3)C(N)=O)NC1=O)C(=O)N[C@@H](Cc1c[nH]c3ccccc13)C(=O)N[C@@H](CCC(N)=O)C(=O)N2` [Ref 78, [(3-Aminomethyl)benzoyl](1c)*SC(2a)WQC(2a)[Y(2-aminoethoxy)][2-Nal][2-Me-Leu]E(1c)R[3-(3-Pyridyl)-Ala]-[NH2], reference compound] ([3Amb]SCWQC[AEF][2Nal][αMeL]ER[3Pal]-NH2; linker 3-6 via CH2COCH2; lactam N-10): in experiment [2], the concentration for half-maximal inhibition (IC50) came to 0.13 nM and the “hIL-23 (pSTAT3) antagonist % inhibition” value is reported as 100%.

With `CC(C)C[C@]1(C)NC(=O)[C@H](Cc2ccc3ccccc3c2)NC(=O)[C@H](Cc2ccc(OCCN)cc2)NC(=O)[C@@H]2CSCC(=O)CSC[C@H](NC(=O)[C@H](CO)NC(=O)Cc3ccc(cc3)CNC(=O)CC[C@@H](C(=O)N[C@H](CCCNC(=N)N)C(N)=O)NC1=O)C(=O)N[C@@H](Cc1c[nH]c3ccccc13)C(=O)N[C@@H](CCC(N)=O)C(=O)N2` [Ref 80, [4-Aminomethyl-phenylacetyl](1c)*SC(2a)WQC(2a)[Y(2-aminoethoxy)][2-Nal][2-Me-Leu]E(1c)[{d}R]-[NH2], reference compound] ([X1]SCWQC[AEF][2Nal][αMeL]E[dR]-NH2; linker 3-6 via CH2COCH2; lactam N-10), in experiment [2], the IC50 was found to be 11 nM and the “hIL-23 (pSTAT3) antagonist % inhibition” value worked out at 97%.
